Laboratory results taken from the supplement of paper PMC10307832.

Assays:
Assay in all cases: relative viability (nuclei count vs DMSO), 5 days (fraction); higher = more cells survive
Imatinib + Crizotinib = compound: Cc1ccc(NC(=O)c2ccc(CN3CCN(C)CC3)cc2)cc1Nc1nccc(-c2cccnc2)n1 [Imatinib] + C[C@@H](Oc1cc(-c2cnn(C3CCNCC3)c2)cnc1N)c1c(Cl)ccc(F)c1Cl [Crizotinib] (partner 1 µM)
Method in brief: (§1)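 Each reported value is a median over duplicate plates. It expresses relative viability: treated-well nuclei count divided by vehicle-well nuclei count. Lung cancer cell lines in 1536-well plates were dosed by pin tool a day after seeding, alone with one drug or with a fixed anchor-drug dose plus five library-drug doses (not always all listed) in √10 steps, and nuclei were counted after 5 days.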

Imatinib + Vorinostat = compound: Cc1ccc(NC(=O)c2ccc(CN3CCN(C)CC3)cc2)cc1Nc1nccc(-c2cccnc2)n1 [Imatinib] + O=C(CCCCCCC(=O)Nc1ccccc1)NO [Vorinostat] (partner 1 µM)
Method in brief: as §1

Imatinib + Trametinib = compound: Cc1ccc(NC(=O)c2ccc(CN3CCN(C)CC3)cc2)cc1Nc1nccc(-c2cccnc2)n1 [Imatinib] + CC(=O)Nc1cccc(-n2c(=O)n(C3CC3)c(=O)c3c(Nc4ccc(I)cc4F)n(C)c(=O)c(C)c32)c1 [Trametinib] (partner 0.02 µM)
Method in brief: as §1

Imatinib + Luminespib = compound: Cc1ccc(NC(=O)c2ccc(CN3CCN(C)CC3)cc2)cc1Nc1nccc(-c2cccnc2)n1 [Imatinib] + CCNC(=O)c1noc(-c2cc(C(C)C)c(O)cc2O)c1-c1ccc(CN2CCOCC2)cc1 [Luminespib] (partner 0.01 µM)
Method in brief: as §1

Row | Cell Line | relative viability (Imatinib + Crizotinib; first compound 0.02 µM) | relative viability (Imatinib + Crizotinib; first compound 0.06325 µM) | relative viability (Imatinib + Crizotinib; first compound 0.2 µM) | relative viability (Imatinib + Crizotinib; first compound 0.6325 µM) | relative viability (Imatinib + Crizotinib; first compound 2 µM) | relative viability (Imatinib + Vorinostat; first compound 0.02 µM) | relative viability (Imatinib + Vorinostat; first compound 0.06325 µM) | relative viability (Imatinib + Vorinostat; first compound 0.2 µM) | relative viability (Imatinib + Vorinostat; first compound 0.6325 µM) | relative viability (Imatinib + Vorinostat; first compound 2 µM) | relative viability (Imatinib + Trametinib; first compound 0.02 µM) | relative viability (Imatinib + Trametinib; first compound 0.06325 µM) | relative viability (Imatinib + Trametinib; first compound 0.2 µM) | relative viability (Imatinib + Trametinib; first compound 0.6325 µM) | relative viability (Imatinib + Trametinib; first compound 2 µM) | relative viability (Imatinib + Luminespib; first compound 0.02 µM) | relative viability (Imatinib + Luminespib; first compound 0.06325 µM) | relative viability (Imatinib + Luminespib; first compound 0.2 µM) | relative viability (Imatinib + Luminespib; first compound 0.6325 µM) | relative viability (Imatinib + Luminespib; first compound 2 µM)
1 | NCI-H460 | 1.29 | 1.38 | 1.55 | 0.881 | 0.85 | 1.4 | 0.636 | 1.09 | 0.705 | 0.735 | 0.142 | 0.102 | 0.199 | 0.125 | 0.21 | 0.0343 | 0.0424 | 0.0365 | 0.0344 | 0.0321
2 | NCI-H520 | 0.764 | 0.978 | 0.874 | 0.963 | 0.647 | 0.7 |  | 0.662 | 0.922 | 0.729 | 0.775 | 0.531 | 0.669 | 0.674 | 0.8 | 0.21 | 0.236 | 0.23 | 0.189 | 0.198
3 | NCI-H596 |  | 0.991 | 1.06 | 0.928 | 0.975 | 0.648 | 0.481 | 0.59 | 0.586 | 0.623 | 0.721 | 1.06 | 0.876 | 0.693 |  | 0.984 | 1.29 | 1.01 | 0.798 | 0.91
4 | NCI-H647 | 1.1 | 1.36 | 1.45 | 1.12 | 1.06 | 0.459 | 0.888 | 0.593 | 0.549 | 0.619 | 0.512 | 0.414 | 0.563 | 0.365 | 0.458 | 0.198 | 0.121 | 0.134 | 0.119 | 0.146
5 | NCI-H650 | 0.708 | 0.913 | 0.916 | 0.656 | 0.812 | 0.388 | 0.597 | 0.448 | 0.466 | 0.466 | 0.969 | 0.833 | 0.937 | 1.04 | 0.843 | 0.887 | 0.67 | 0.641 | 0.796 | 0.769
6 | NCI-H661 |  | 0.806 | 1.05 |  | 0.869 | 0.823 | 0.87 | 0.845 | 0.778 | 0.74 | 0.62 | 0.419 | 0.649 | 0.586 | 0.593 | 0.931 | 1.03 | 1.01 | 0.934 | 0.874
7 | NCI-H727 |  | 0.853 | 0.944 | 0.845 | 0.792 | 1.28 |  |  | 1.14 | 1.34 | 0.334 |  | 0.411 | 0.392 | 0.411 | 0.319 |  | 0.242 | 0.323 | 0.31
8 | NCI-H838 | 0.956 | 1.25 |  | 0.736 | 0.931 | 0.77 | 0.786 | 0.74 | 0.708 | 0.76 | 0.504 | 0.549 | 0.608 | 0.569 | 0.486 | 0.33 | 0.3 | 0.363 | 0.275 | 0.266
9 | NCI-H1437 | 1.02 | 1.15 | 1.1 | 1.07 | 0.878 | 0.934 | 0.81 | 0.883 | 0.998 | 0.786 | 0.569 | 0.345 | 0.607 | 0.544 | 0.494 | 1.25 | 1.18 | 1.28 | 1.22 | 1.08
10 | NCI-H1650 | 1.04 | 1.06 | 1.2 | 0.904 | 1.11 | 0.605 | 0.527 | 0.477 | 0.441 | 0.452 | 0.579 | 0.471 | 0.404 | 0.635 | 0.559 | 0.189 | 0.2 | 0.184 | 0.192 | 0.193
11 | NCI-H1651 | 0.916 | 0.775 |  | 0.855 | 0.891 | 0.603 | 0.49 | 0.631 | 0.547 | 0.548 | 0.876 | 0.795 | 0.859 | 0.84 | 0.82 | 0.926 | 0.829 | 0.947 | 0.749 | 0.83
12 | NCI-H1666 | 1.02 | 1.09 | 0.991 | 1.14 | 0.966 | 1.04 | 0.986 | 1.06 | 1.27 | 0.946 | 0.82 | 0.855 | 0.823 | 1.09 | 0.924 | 1.06 | 1.21 |  | 1.18 | 1.03
13 | NCI-H1734 | 0.674 |  | 0.891 | 0.642 |  | 0.92 |  | 0.832 | 0.856 | 0.717 | 0.739 |  | 0.689 | 0.825 | 0.71 | 0.194 | 0.204 | 0.181 | 0.177 | 0.233
14 | NCI-H1755 | 1.08 | 1.12 | 1.06 | 0.808 | 0.794 | 0.875 | 0.835 | 0.649 | 0.742 | 0.653 | 0.793 | 0.811 | 0.839 | 0.782 | 0.725 | 0.402 | 0.371 | 0.273 | 0.454 | 0.418
15 | NCI-H1915 | 0.905 |  | 1.03 | 0.885 | 0.897 | 0.613 |  | 0.516 | 0.461 | 0.471 | 0.328 |  | 0.293 | 0.304 | 0.312 | 1.1 |  | 0.694 | 0.637 | 0.766
16 | NCI-H1944 | 1.24 |  |  | 0.935 |  | 0.605 | 0.573 | 0.536 | 0.512 | 0.439 | 0.408 | 0.376 | 0.449 | 0.436 | 0.402 | 0.831 | 0.655 |  | 0.665 | 0.787
17 | NCI-H1975 | 1.1 | 1.16 | 1.1 | 0.916 | 1.07 | 0.698 | 0.741 | 0.73 | 0.686 | 0.686 | 0.364 | 0.273 | 0.375 | 0.41 | 0.326 | 0.254 | 0.191 | 0.201 | 0.178 | 0.274
